Patent publication US7722863B2, “Use of granzyme b as an hsp70/hsp70 peptide dependent inducer of apoptosis in tumor cells” (Multimmune GmbH, priority 2002, dated 2010)
Several values for one entry are separate records, joined by “and”; a condition that tells them apart may be missing. Equal values may be shown once.

Assays:
[1] = system: CX− tumor cells; experiment: Cytochrome c release, quantitative immunoassay; format: cell-based, human; conditions: camptothecin 4 μg/ml or granzyme B 6 ng/ml, 24 h
Description: (§1) Cytochrome c release: Cytochrome c release was determined using a quantitative immunoassay; (DCDCO, R&D Systems, Wiesbaden, Germany). Briefly, either untreated, camptothecin (4 μg/ml) or granzyme B (6 ng/ml) treated CX+ and CX− cells (1.5×10^6/ml) were washed in PBS and treated with lysis buffer for 1 h at room temperature. Following centrifugation at 1,000 g for 15 min supernatants were removed and 200 μl of a 1:100, 1:250, and a 1:500 dilution was used for a sandwich ELISA. Following incubation with substrate solution in the dark for 30 min the reaction was stopped. The optical density of each well was determined on an ELISA reader at 450 nm. The amount of cytochrome c was determined according to a calibration curve.
(§2) As an additional test for apoptotic cell death, cytochrome c release was measured following incubation of CX+ and CX− cells with granzyme B for 24 h. As summarized in Table I, following incubation with granzyme B (6 ng/ml) for 24 h, cytochrome c concentration was elevated from 0.382 mg/ml to 0.690 mg/ml (1.8-fold) in CX+ cells. […] It was propose that the trigger of apoptosis by granzyme B is mediated via the extracellular exposed Hsp70 epitope TKD.

[2] = system: CX+ tumor cells; experiment: Cytochrome c release, quantitative immunoassay; format: cell-based, human; conditions: camptothecin 4 μg/ml or granzyme B 6 ng/ml, 24 h
Description: as §1, §2

[3] = system: CX+/CX− and Colo+/Colo− tumor cells; experiment: Light microscopical analysis of plastic adherence (anoikes); format: cell-based, human; conditions: 24 h post-treatment with granzyme B; Hsp70 membrane-positive and -negative lines
Description: In order to exclude apoptosis initiated by anoikes light microscopical analysis of untreated (control), camptothecin (cam) and granzyme B (grB) treated CX+/CX− and Colo+/Colo− tumor cells were performed. […] Regarding these findings we ruled out the possibility that anoikes might be a possible mechanism for the induction of apoptotic cell death in Hsp70 membrane-positive tumor sublines. It is important to note that all apoptosis assays were determined within the adherent cell population following a short term (<1 min) trypsinization.

[4] = system: Hsp70 membrane-negative CX− cells; experiment: Annexin V-FITC apoptosis assay (flow cytometry); format: cell-based, human; conditions: for apoptosis in CX− cells: camptothecin 4 μg/ml or granzyme B 6 ng/ml
Description: (§3) Exponentially growing tumor cells (day 1 after cell passage) were used for granzyme B, camptothecin treatment and as targets in cytotoxicity assays.
(§4) Stock solutions of camptothecin (4 mg/ml, Sigma, Munich, Germany) were diluted in DMSO and stored at 4° C. in the dark. Granzyme B (6 ng/ml, Hölzel Diagnostics, Cologne, Germany) solutions were freshly prepared directly before usage. Exponentially growing cells (0.5-1.5×10^6/ml) were incubated either with camptothecin at a final concentration of 4 μg/ml or with purified, enzymatically active granzyme B (10 ng/ml, 1 μg/ml, 2 μg/ml; 4 μg/ml) (Shi et. al. (2000) Methods in Enzymology 322, 125) for 10 min, and 30 min either at 4° C. or at 37° C. After washing in RPMI-1640 medium binding and uptake was determined in nonpermeabilized and permeabilized tumor cells by flow cytometry and fluorescence microscopy on a Axioscop 25 scanning microscope (Zeiss, Jena, Germany) equipped with a 40× objective and standard filters. Images were treated by multiplicative shading correction using the software Axiovison (Zeiss Vison, Jena, Germany). Granzyme B was visualized in red by using the HC2-PE antibody.
(§5) Apoptotic Cell Death was Determined after Incubation of Tumor Cells with 6 ng/ml Granzyme B for 4 h, 12 h, and 24 h at 37° C. and Washing in RPMI-1640 Medium by Different Apoptosis Assays, as Described Below. Apoptosis Assays
(§6) Annexin V-FITC staining: Briefly, cells were washed twice in Hepes buffer containing 5 mM CaCl2 and incubated with Annexin V-FITC (Roche) for 10 min at room temperature. Annexin V-FITC positively stained cells were measured on a FACSCalibur flow cytometer (Becton Dickinson, Heidelberg, Germany).
(§7) The preceding findings posed the question whether purified granzyme B can induce apoptosis of tumor cells that present Hsp70 on their cell surface. […] As a positive control for apoptosis all cell types were incubated with the topoisomerase inhibitor camptothecin at a concentration of 4 μg/ml. Apoptosis was determined by Annexin V-FITC staining measured by FACS (FACSCalibur, Becton Dickinson, Heidelberg, Germany), DAPI staining and mitochondrial cytochrome c release. Apoptosis was not detected in CX+ and CX− cells incubated with camptothecin (cam) or granzyme B (grB) for 4 h incubation (FIG. 3A). […] It appeared that the colon carcinoma sublines CX+/CX− are better protected towards a camptothecin-mediated cell death as compared to the pancreas carcinoma sublines Colo+/Colo−.

[5] = system: Hsp70 membrane-negative Colo− cells; experiment: Annexin V-FITC apoptosis assay (flow cytometry); format: cell-based, human; conditions: 12 h and 24 h; camptothecin 4 μg/ml or granzyme B 6 ng/ml
Description: as §3, §4, §5, §6, §7

[6] = system: Hsp70 membrane-positive CX+ cells; experiment: Annexin V-FITC apoptosis assay (flow cytometry); format: cell-based, human; conditions: for apoptosis in CX+ cells / amount of Annexin V-FITC positively stained CX+ cells / fold increase of Annexin V-FITC positively stained CX+ cells: camptothecin 4 μg/ml or granzyme B 6 ng/ml; for fold increase of Annexin V-FITC positively stained CX+ cells: versus untreated
Description: as §3, §4, §5, §6, §7

[7] = system: Hsp70 membrane-positive Colo+ cells; experiment: Annexin V-FITC apoptosis assay (flow cytometry); format: cell-based, human; conditions: granzyme B 6 ng/ml
Description: as §3, §4, §5, §6, §7

[8] = system: Colo− tumor cells; experiment: DAPI staining of nuclear DNA fragmentation; format: cell-based, human; conditions: 24 h, camptothecin 4 μg/ml or granzyme B 6 ng/ml
Description: (§8) DAPI-staining: Methanol/aceton fixed cells (0.1×10^6 cells/100 μl) were incubated with 0.5 μg/μl 4,6-diamino-2-phenylindole (DAPI) in PBS/glycerol (3:1), for 15 min in the dark. Following washing in PBS the cells were mounted with Fluorescent Mounting Medium (Dako, Glostrup, Denmark) and than analysed for fluorescence using a Zeiss model Axioscop 2 scanning microscope (Zeiss Jena, Germany) equipped with a 40× objective and standard filters. Apoptosis was visualized with DAPI-staining in 50 cells, each. Images were treated by multiplicative shading correction using software Axiovision (Zeiss Vision Jena, Germany).

[9] = system: CX+ tumor cells; experiment: DAPI staining of nuclear DNA fragmentation; format: cell-based, human; conditions: 24 h, camptothecin 4 μg/ml or granzyme B 6 ng/ml
Description: as §8

[10] = system: Hsp70 membrane-positive leukemic cell line K562; experiment: Annexin V-FITC apoptosis assay (flow cytometry); format: cell-based; conditions: granzyme B
Description: as §3, §6
Similarly, a 1.3-fold and a 2.4-fold increase in the amount of Annexin V-FITC positively stained Colo+ cells were observed after 12 h and 24 h, respectively. […] A comparative Annexin V-FITC staining pattern of CX+ and CX− cells treated with granzyme B for 24 h, is illustrated in FIG. 3B. […] The amount of Annexin V-FITC positively stained K562 cells increased from 8.7% up to 16% (1.8-fold).

granzyme B
cytochrome c fold increase ([1]; control 1.0): 0.9 fold
cytochrome c ([1]; mean of 4 experiments ± S.E., control 0.452 ± 0.02): 0.425 mg/mL and 0.425 ± 0.075 mg/mL
cytochrome c fold increase ([2]; control 1.0): 1.8 fold
cytochrome c ([2]; mean of 4 experiments ± S.E., control 0.382 ± 0.02): 0.690 mg/mL and 0.690 ± 0.08 mg/mL
loss in plastic adherence [3]: neither Hsp70 membrane-positive nor -negative tumor cell lines exhibited any signs of loss in plastic adherence
apoptosis in CX− cells ([4]; 4 h incubation): not detected
apoptosis in CX− cells ([4]; 12 h and 24 h): neither a 12 h nor a 24 h treatment with granzyme B induces apoptosis
amount of apoptotic CX− cells before and after treatment ([4]; 24 h granzyme B, FIG. 3B): remained unaltered
apoptosis in Colo− cells [5]: neither a 12 h nor a 24 h treatment with granzyme B induces apoptosis
apoptosis in CX+ cells ([6]; 4 h incubation): not detected
amount of Annexin V-FITC positively stained CX+ cells ([6]; 12 h, untreated 16.6%): 20.9%
fold increase of Annexin V-FITC positively stained CX+ cells ([6]; 12 h): 1.3 fold
apoptosis in CX+ cells ([6]; 12 h and 24 h): apoptosis was observed
amount of Annexin V-FITC positively stained CX+ cells ([6]; 24 h, untreated 18%): 30.2%
fold increase of Annexin V-FITC positively stained CX+ cells ([6]; 24 h): 1.8 fold
fold increase of Annexin V-FITC positively and PI negatively stained CX+ cells ([6]; 24 h granzyme B, representative analysis FIG. 3B): 1.7 fold
amount of Annexin V-FITC positively and propidium iodide (PI) negatively stained CX+ cells ([6]; 24 h granzyme B, representative analysis FIG. 3B, untreated control 18%): 30%
fold increase in the amount of Annexin V-FITC positively stained Colo+ cells ([7]; 12 h): 1.3 fold
fold increase in the amount of Annexin V-FITC positively stained Colo+ cells ([7]; 24 h): 2.4 fold
nuclear DNA fragmentation (DAPI) [8]: no DNA fragmentation was observed
nuclear DNA fragmentation (DAPI) [9]: DNA fragmentation was detected
amount of Annexin V-FITC positively stained K562 cells ([10]; untreated 8.7%, data not shown): 16%
fold increase of Annexin V-FITC positively stained K562 cells ([10]; versus untreated): 1.8 fold
